A melting point compilation (Tetko et al.; mined from patent text by program, amines drawn as free bases though some values may be those of a salt)

Structure (SMILES) | melting point [°C]
N#Cc1ccc(-c2cn(-c3ccc(C#N)cc3)c(SCc3ccccc3)n2)cc1 | 168 to 172
CCN1C(=O)CON(C(C)=O)C1c1ccccc1 (centres undefined) | 130 to 132
CCOC(=O)N1CCC(c2ccc3nc(-c4ccc(S(C)(=O)=O)cc4F)oc3c2)CC1 | 154 to 158
CC(=O)OC1CCC2(C)C(=CC(=O)C3C4CC(OC(C)=O)C(=O)C4(C)CCC32)C1 (centres undefined) | 206
Nc1nnc(C(CCc2ccccc2)NC(=O)c2ccc3[nH]c(-c4ccncc4)nc3c2)o1 (centres undefined) | 160
Cc1ccc(S(=O)(=O)NC2CCCCNC2=O)cc1 (centres undefined) | 180
COc1ccc2c(-c3ccc(Cl)cc3)noc2c1 | 148 to 149
CC(=O)C1(C(=O)N[C@H](C)c2ccccc2)CCC1 | 57 to 60
CCOC(=O)C1=C(C)NC(C)=C(c2nnco2)C1c1cccc(Cl)c1Cl (centres undefined) | 187 to 189
CCC(C)COC(=O)Oc1ccc(-c2ccc(O)cc2)cc1 (centres undefined) | 129 to 130
CC(CSS)C(=O)Nc1ncccc1C(=O)O (centres undefined) | 95 to 100
COC(=O)N=c1[nH]c2ccccc2n1C1CCN(Cc2ccccc2)CC1 | 170
CCc1cnc2c(c1)C=Cc1cccnc1N2 | 95 to 97
OCCNc1nc(NCCO)nc(Nc2ccccc2Cl)n1 | 108 to 110
Nc1nc(F)nc(OC(F)(F)F)n1 | 138 to 139
CC(C)Oc1cc(N)ccc1-n1cccc1 | 55 to 57
Cc1oc(-c2cc3ccccc3o2)nc1COc1ccc(CCCC2OC(=O)NC2=O)cc1 (centres undefined) | 165 to 166
O=C(c1ccco1)N1CCN[C@@H]2CCCC[C@@H]21 | 47 to 50
BrCCCN(c1ccccc1)c1ccccc1 | 162 to 164
C1CCN(c2nc(N3CCCC3)c3nc(N4CCCCC4)nc(N4CCCC4)c3n2)CC1 | 254 to 256
CSc1ccc(C(=O)Nc2ccc3ccc(Cl)nc3n2)s1 | 235
CNC(=O)C(=NOC)c1ccccc1COc1ncc(Br)cc1C | 115 to 116

Structure (SMILES) | melting point [°C]
Cc1noc(NC(=O)N2CCN(c3cc(-c4cccc(F)c4)ncn3)CC2)c1C | 185 to 186
Cc1nc(-c2ccc3c(c2)CCCC3)co1 | 53 to 54
COc1cnn(-c2cccc(CBr)c2)c(=O)c1OC | 67 to 69
CN1CC2=C(n3cncc3C1)S(=O)C=C2 (centres undefined) | 160 to 163
COC(=O)c1cc2cc(OCCn3ccnc3)ccc2s1 | 127 to 129
CCC1(CC(=O)O)OCCc2c1[nH]c1c(OCC(F)(F)F)cccc21 (centres undefined) | 126 to 129
COC(=O)c1ccc(OCCNC(=O)c2ccc(F)cc2)cc1 | 105 to 107
CC(C)(C)[Si](C)(C)Oc1ccccc1-c1cc(-c2ccc([N+](=O)[O-])cc2)c(C#N)c(NC(=O)c2cccs2)n1 | 168 to 169
O=C(CCCN1CCC2(CC1)SC(c1ccc(Cl)cc1)c1ccccc12)c1ccc(F)cc1F (centres undefined) | 98 to 100
O=c1c(Br)c(O)ccn1Cc1ccc(O)cc1 | 102 to 108
NC(c1ccc2c(c1)OCO2)P(O)O (centres undefined) | 235 to 236
C=CCNC(=O)C1CCc2cc(Cl)ccc2O1 (centres undefined) | 112 to 114
O=C(CCc1ccc(O)c(C=Nc2ccccc2O)c1)ON1C(=O)CCC1=O | 170
O=C(c1c[nH]c2cc(Oc3ccc(F)cc3)ccc12)C1CSC(c2cccnc2)N1 (centres undefined) | 189 to 191
CC(CCC(=O)N(C)C#N)C(=O)N(C)C#N (centres undefined) | 59.2 to 60.9
CS(=O)Cc1cc(C(F)(F)F)ccc1N (centres undefined) | 122 to 125
CSc1c([N+](=O)[O-])c2cc(Cl)ccc2[nH]c1=O | 213
Nc1cc(Cl)cnc1F | 74
Cc1cc(N2CCN(c3ccc(C(F)(F)F)cn3)CC2)cc(C)c1O | 143 to 144
O=C(O)c1nn(-c2ccc(Cl)cc2Cl)c2c1CCc1cc(C(F)(F)F)ccc1-2 | 245
O=C1CCC(N2Cc3c(OCc4ccc(CN5CCc6ncccc6C5)cc4)cccc3C2=O)C(=O)N1 (centres undefined) | 163 to 165

Next, values leading:

melting point [°C] | Structure (SMILES)
207 to 208 | COc1ccc2c(c1)C(C)(N1C(=O)c3ccccc3C1=O)C(=O)N2c1ccc(F)cc1 (centres undefined)
70 to 73 | Fc1cc(F)nc(NCc2ccccc2)n1
104 to 105 | COc1ccc2c(c1)C(CCNC(=O)C(C)C)CC2 (centres undefined)
157 | Cn1nnc2ccc(C(c3cccs3)n3ccnc3)cc21 (centres undefined)
164 to 168 | COc1cc2ccc(Br)cc2cc1C12CC3CC(CC(C3)C1)C2
198 to 199 | CCc1nn(CCOP(=O)(O)O)c(CC)c1Oc1cc(C#N)cc(C#N)c1
220 | CS(=O)(=O)c1cc(Br)ccc1C(=O)O
298 to 300 | O=c1ccc2c(-n3cnc([N+](=O)[O-])c3)nccc2[nH]1
251 to 253 | COc1cc(/C=C/c2ccc(N)cc2)cc(OC)c1OC
134 to 136 | N#Cc1ccc(OCc2ccsc2)cc1OC(C(=O)O)c1cccc(Cl)c1 (racemic)
240 | Cc1cc(-c2cnn3c(C(F)(F)F)cc(-c4ccc(Cl)c(C)c4)nc23)ccn1
135 to 137 | CCS(=O)(=O)N1CCN(Cc2ccc(COc3cccc4c3CN(C3CCC(=O)NC3=O)C4=O)cc2)CC1 (centres undefined)
220 to 222 | CCNc1cccc2c(S(=O)(=O)Nc3cnc(Br)cn3)cccc12
273 to 275 | CCc1c2nc(-c3cc(S(C)(=O)=O)ccc3OCC(C)C)[nH]c(=O)c2nn1C1CCN(C(C)C)CC1
169 to 170 | CCOC(=O)c1ccc(NC(=O)CNc2ccccc2F)cc1
242 | O=C(N[C@H]1CC[C@H](CCN2CCN(c3nccc4c3OCC4)CC2)CC1)c1ccc(C(F)(F)F)cc1
202 to 204 | Cn1nc(S(C)(=O)=O)c(=O)c2ccccc21
177 | CCNc1nnc(C(C)(C)C)c(=O)n1N
39 to 41 | C=CCSc1nnc(OCC)c2c1CCCC2
164 to 166 | Cc1ccsc1C=C1C(=O)COC1=O
159 to 161 | O=C(O)c1cc(=O)c2cccc(/C=C/c3ccc(OCCCCc4ccccc4)cc3)c2o1

melting point [°C] | Structure (SMILES)
185 to 187 | Cc1ccc(C(CC(=O)O)C(C#N)c2cccnc2)cc1 (centres undefined)
113 to 116 | C=C(C(N)=O)N1CCC(c2ccc(OC(C)=O)c(OC)c2)C1c1ccccc1 (centres undefined)
79 to 86 | CCCCc1oc2ccccc2c1C(=O)N(C)Cc1ccc(-c2ccc(OC(Cc3ccccc3)C(=O)O)c(Br)c2)cc1 (centres undefined)
170 to 173 | NC(=O)c1ccc(CCN2CCN(Cc3ccccc3Cl)CC2)cc1
190 | Cc1nc2c(c(=O)[nH]1)-c1cc(S(=O)(=O)Nc3ccc(C(N)=O)cc3)ccc1CC2
218 to 220 | Cc1cccc2ncc(NC(=O)Nc3ccc(F)cc3F)c(-c3ccccc3Cl)c12
143 to 145 | Cc1ccc(C)n1-c1ccc(/C=C/C(=O)N(C)O)cc1
186 | CC1(C)CCC(=O)Nc2ccc(Nc3ncc(Cl)c(Nc4ccccc4-c4ncccn4)n3)cc21
161 to 163 | COC(=O)c1ccc2c([N+](=O)[O-])cc3c(c2c1)C(CCl)CN3 (centres undefined)
> 200 | Cc1ccc(S(=O)(=O)c2cc3cnc(C)nc3nc2O)cc1
205 to 206 | C=CCOc1ccccc1-c1nc2nc(SC)ncc2c(=O)[nH]1
146 to 147 | O=C1O[C@@H](CNC(=S)C(F)F)CN1c1ccc(N2CCS(=O)(=O)CC2)c(F)c1
174 to 175 | Cc1nn(-c2ccc(F)cc2)c(C)c1C(=O)Nc1ccc(OCC(C)(C)C)c(C#N)c1
234 to 238 | COc1ccc2c(c1)CCc1c-2n(-c2ccccc2)c2ncccc2c1=O
198 to 200 | COc1cc(NC(C)=O)c(Cl)cc1C(=O)NN1CCN(C)CC1
215 to 217 | Clc1ccc2c(Nc3ccccc3)ncnc2c1
131 to 134 | CCCCOC1(N)C=CC(NC(=O)CBr)=CC1 (centres undefined)
147 to 149 | NC(=O)N(O)Cc1ccc(OCc2ccccc2)cc1
83 to 86 | CN(C)S(=O)(=O)N[Si](C)(C)C
97 to 100 | O=C(Nc1ccc(F)c(C(F)(F)F)c1)C1C(=O)C2CCC(C2)C1=O (centres undefined)
148 to 150 | O=C1CCN(Cc2ccccc2)C(=O)C1=C1SCCS1

melting point [°C] | Structure (SMILES)
262 | Nc1cc(-c2noc(-c3cnn4c(C(F)(F)F)cc(-c5ccc(Cl)c(Cl)c5)nc34)n2)ccn1
91.5 to 93.5 | O=C(Nc1ccc(Oc2cccc(Cl)c2)c(Cl)c1)c1ccccn1
83 to 84 | C=C(C)CN1Cc2cscc2Nc2ccccc21
77 to 79 | Nc1c(Cl)cc(C(O)CNCCCCCCOCCCCc2ncccn2)cc1Cl (centres undefined)
196 to 206 | O=C1Cc2cc(F)c(Cl)cc2N1
181 to 183 | COc1nc(C)nc(NC(=O)NS(=O)(=O)c2c(Cl)cccc2C(C)F)n1 (centres undefined)
268 to 270 | C[C@H]1COc2c(N3CC(C)(N)C4(CC4)C3)c(F)cc3c(=O)c(C(=O)O)cn1c23 (some centres undefined)
120 to 121 | CC(=O)NC(C)c1ccc(CN2CCN(c3ccccn3)CC2)cc1 (centres undefined)
46 to 47 | COc1nc(C2CC2)nc(OC(C)C)c1C=O
269 to 270 | Nc1ccccc1C(=O)NC1CCN(CCCOc2ccc3c4c(c(=O)oc3c2)CCC4)CC1
156 to 157 | Cn1c(SCC(=O)C23CC4CC(CC(C4)C2)C3)nnc1-c1cccs1
> 300 | COc1nc(-c2ccc(C(=O)O)cc2)cc2cccnc12
80 | CC(C)CCCC(C)C1CCC2C3CC=C4CC(OCCCCCCN5C(=O)c6ccccc6C5=O)CCC4(C)C3CCC12C (centres undefined)
117 to 118 | CCOC(=O)Cc1csc(-c2cc3cccc(N(C)S(=O)(=O)c4cccs4)c3[nH]2)n1
157 | Cn1ncc2c(=O)n3c(nc21)SCCCC3
155 to 158 | CC(=O)CC(=O)C=Cc1c[nH]c2ccccc12
> 290 | C=Cc1c[nH]c(=O)nc1N
204 to 206 | Fc1ccc(Nc2ncnc3cnc(NCC4CCNCC4)nc23)cc1Cl
263 to 265 | CC(=O)Nc1ccc([N+](=O)[O-])cc1-c1cc([N+](=O)[O-])ccc1NC(C)=O
